Columns and labels:
Digitaria ciliaris = assay: Ex 1 pot test, visual % damage; assay type: in vivo
[1] = tested on: Ipomoea gradifolia (IAOGR); assay: Ex 4 pre-emergence, visual % damage; assay type: in vivo; settings: kg/ha or L/ha: Amicarbazone 1.50, Gesapax 5.00, Karmex 5.00, Provence 0.20, Sencor 3.50, alone
Description: (§1) DINAMIC® (amicarbazone) in combination of various herbicides listed in Table 4-1 were tested for herbicidal activity.
The herbicidal effect was observed by comparing the extent of Ipomoea gradifolia (IAOGR) treated with the compounds against that occurring in similar non-treated control. Herbicidal effect was visually assessed and recorded at 14, 23, 36, 49, 65 and 77 days after treatment (DAT). Damage by the herbicidal compositions was evaluated with reference to a scale of 0% to 100% in comparison with untreated control. 0% means no damage and 100% means complete destruction of the plants. […] The theoretical herbicidal effect index were calculated based on Colby and the values were indicated in bracket ( ). […] Some of the observed herbicidal effects were the same as the theoretical hervicidal effects, which indicate additive effects. The underlined values in the table indicate that the observed weed killing is greater than calculated from the Colby formula and therefore indicates a synergistic weed killing effect or activity.

[2] = tested on: Croton glandulosus (CROTON); assay: Ex 4 pre-emergence, visual % damage; assay type: in vivo; settings: kg/ha or L/ha: Amicarbazone 1.50, Gesapax 5.00, Karmex 5.00, Provence 0.20, Sencor 3.50, alone
Description: as §1
The herbicidal effect was observed by comparing the extent of Croton glandulosus (CROTON) treated with the compounds against that occurring in similar non-treated control. Herbicidal effect was visually assessed and recorded at 14, 23, 36, 49, 65 and 77 days after treatment (DAT). Damage by the herbicidal compositions was evaluated with reference to a scale of 0% to 100% in comparison with untreated control. 0% means no damage and 100% means complete destruction of the plants. […] The theoretical herbicidal effect index were calculated based on Colby and the values were indicated in bracket (2). Some of the observed herbicidal effects were the same as the theoretical hervicidal effects, which indicate additive effects. The underlined values in the table indicate that the observed weed killing is greater than calculated from the Colby formula and therefore indicates a synergistic weed killing effect or activity.

[3] = tested on: Kentucky Bluegrass Seedling; settings: in vivo
Description: (§2) Containers were watered as needed based on species and water usage. The greenhouse was heated to keep temperatures above 50° F. (10° C.) and ventilated as needed to keep temperatures below 100° F. (38° C.). Typical daytime temperatures in the greenhouse were 80-90° F. (27-32° C.) and nighttime temperatures were between 50-60° F. (10-16° C.). The soil employed was Promix BX potting soil. Overall moisture conditions were normal and the closest weather station was on-site. Conditions and equipment employed in this Example are tabulated below in Tables 5-1 and 5-2.
(§3) All containers were moved outdoors from the greenhouse and arranged in blocks by treatment for the herbicide applications. A single spray application was applied to each block containing four repetitions of each species for each treatment. Plants were then immediately returned to the greenhouse and irrigated with approximately ¼″ water 1-3 hrs after treatment with a hose end sprayer. Only the Poa plants were trimmed with scissors two days prior to treatment at a height of approximately 3 inches.
[…] Tall fescue was seeded into the crabgrass pots. St. Augustine plants (Floratam and Saphire) were shipped from Port St. Lucie, Fla. Only two replicates of Saphire St. Augustine grass were used due to plant availability.
Referring to FIGS. 2A-B, 3A-C, 4A-C, and 5A-D, all ratings of injury or bleaching are based on a scale from 1 to 9. […]

Crabgrass sp. = assay: Ex 5/7 greenhouse spray, bleaching/injury/density ratings; assay type: in vivo
Description: as §2, §3
Transplanted tillering Kentucky Bluegrass was 5 to 6 months old, transplanted Poa annua was 5 to 6 months old. Tall fescue was seeded into the crabgrass pots. St. Augustine plants (Floratam and Saphire) were shipped from Port St. Lucie, Fla. Only two replicates of Saphire St. Augustine grass were used due to plant availability.
Referring to FIGS. 2A-B, 3A-C, 4A-C, and 5A-D, all ratings of injury or bleaching are based on a scale from 1 to 9. […] Any bleaching measurement 4 and above was considered unacceptable for desirable turf species. In injury measurements, 1 indicates no injury while 9 indicates a dead plant. Any injury measurement 4 and above was considered unacceptable for desirable turf species). Density correlates with percent cover where 1 indicates no grass while 9 indicates a full pot.
Replications employed include 4, Untreated treatments: 1, Design: Randomized Complete Block, Treatment units: US standard, Treated plot size Width: 4 feet, Treated plot size Length: 4 feet, Application volume: 50 gal/ac, Mix size: 0.5562 liters, Mix overage: 100%, Format definitions: G-All7.DEF, G-All7.FRM.
In evaluating synergism, the data from Example 5 above were converted to % of control. This was done based on the data provided on a 1-9 scale detailed in Example 5. Expected values were computed from the % of control data by the formula for expected control=[…], where A is the % of control value for herbicide A alone and B is the % of control value for herbicide B alone.

[4] = rating 1, 0.022 lbs ai/A (0.5 oz/A)
[5] = rating 1, 0.13 lbs ai/A (3 oz/A)
[6] = rating 2, 0.022 lbs ai/A (0.5 oz/A)
[7] = rating 2, 0.13 lbs ai/A (3 oz/A)
[8] = rating 3, 0.022 lbs ai/A (0.5 oz/A)
[9] = rating 3, 0.13 lbs ai/A (3 oz/A)
[10] = rating 4, 0.022 lbs ai/A (0.5 oz/A)
[11] = rating 4, 0.13 lbs ai/A (3 oz/A)
[12] = rating 5, 0.022 lbs ai/A (0.5 oz/A)
[13] = rating 5, 0.13 lbs ai/A (3 oz/A)
[14] = rating 6, 0.022 lbs ai/A (0.5 oz/A)
[15] = rating 6, 0.13 lbs ai/A (3 oz/A)

## CC(C)c1nn(C(=O)NC(C)(C)C)c(=O)n1N [Amicarbazone, 4-amino-5-isopropyl-2-(tert-butyl-aminocarbonyl)-2,4-dihydro-3H-1,2,4-triazol-3-one]
Digitaria ciliaris; 50 g/ha and 100 g/ha, one-leaf stage
  herbicide effect: small
Digitaria ciliaris; single application 50 g/ha, 5 DAT
  percentage control: 24%
Digitaria ciliaris; single application 50 g/ha, 8 DAT
  percentage control: 38%
Digitaria ciliaris; single application 50 g/ha, 14 DAT
  percentage control: 34%
Digitaria ciliaris; single application 50 g/ha, 21 DAT
  percentage control: 34%
Digitaria ciliaris; single application 50 g/ha, 28 DAT
  percentage control: 26%
Digitaria ciliaris; single application 100 g/ha, 5 DAT
  percentage control: 70%
Digitaria ciliaris; single application 100 g/ha, 8 DAT
  percentage control: 78%
Digitaria ciliaris; single application 100 g/ha, 14 DAT
  percentage control: 82%
Digitaria ciliaris; single application 100 g/ha, 21 DAT
  percentage control: 74%
Digitaria ciliaris; single application 100 g/ha, 28 DAT
  percentage control: 66%
Digitaria ciliaris; single application 200 g/ha, 5 DAT
  percentage control: 92%
Digitaria ciliaris; single application 200 g/ha, 8 DAT
  percentage control: 96%
Digitaria ciliaris; single application 200 g/ha, 14 DAT
  percentage control: 98%
Digitaria ciliaris; single application 200 g/ha, 21 DAT
  percentage control: 86%
Digitaria ciliaris; single application 200 g/ha, 28 DAT
  percentage control: 86%
[1]; 14 DAT
  percentage control: 98%
[1]; 23 DAT
  percentage control: 98%
[1]; 36 DAT
  percentage control: 98%
[1]; 49 DAT
  percentage control: 98%
[1]; 65 DAT
  percentage control: 96%
[1]; 77 DAT
  percentage control: 97%
[2]; 14 DAT
  percentage control: 100%
[2]; 23 DAT
  percentage control: 99%
[2]; 36 DAT
  percentage control: 99%
[2]; 49 DAT
  percentage control: 99%
[2]; 65 DAT
  percentage control: 99%
[2]; 77 DAT
  percentage control: 99%
[3]
  injury to seedlings: injured Kentucky Bluegrass seedlings
Crabgrass sp.; [4]
  Crabgrass bleaching: 97
  Crabgrass cover: 88
  Crabgrass injury: 94
Crabgrass sp.; [5]
  Crabgrass bleaching: 100
  Crabgrass cover: 67
  Crabgrass injury: 100
Crabgrass sp.; [6]
  Crabgrass bleaching: 100
  Crabgrass cover: 94
  Crabgrass injury: 100
Crabgrass sp.; [7]
  Crabgrass bleaching: 100
  Crabgrass cover: 67
  Crabgrass injury: 100
Crabgrass sp.; [8]
  Crabgrass bleaching: 100
  Crabgrass cover: 100
  Crabgrass injury: 100
Crabgrass sp.; [9]
  Crabgrass bleaching: 100
  Crabgrass cover: 72
  Crabgrass injury: 100
Crabgrass sp.; [10]
  Crabgrass bleaching: 100
  Crabgrass injury: 97
Crabgrass sp.; [11]
  Crabgrass bleaching: 100
  Crabgrass injury: 94
Crabgrass sp.; [12]
  Crabgrass bleaching: 97
  Crabgrass injury: 97
Crabgrass sp.; [13]
  Crabgrass bleaching: 100
  Crabgrass injury: 94
Crabgrass sp.; [14]
  Crabgrass bleaching: 97
  Crabgrass injury: 94
Crabgrass sp.; [15]
  Crabgrass bleaching: 100
  Crabgrass injury: 94
Crabgrass sp.; rating 7, 0.022 lbs ai/A (0.5 oz/A)
  Crabgrass bleaching: 100
Crabgrass sp.; rating 7, 0.13 lbs ai/A (3 oz/A)
  Crabgrass bleaching: 100
Crabgrass sp.; rating 8, 0.022 lbs ai/A (0.5 oz/A)
  Crabgrass bleaching: 100
Crabgrass sp.; rating 8, 0.13 lbs ai/A (3 oz/A)
  Crabgrass bleaching: 100

Source: patent publication US11432549B2, “Carbamoyl triazolinone based herbicide combinations and method of use” (Arysta LifeScience Corporation, priority 2009, dated 2022)
